Experimental data published in patent US11850286B2, “Sulfamide linker, conjugates thereof, and methods of preparation” (priority 2014, dated 2023).

Assay: Determination of HPLC retention time (RP-HPLC, polarity)
Assay type: physicochemical
Procedure: Samples of compounds 19-38 were injected on an HPLC system equipped with an Phenomenex Luna C18(2) 5μ, 150×4.6 mm, 100 Å column and eluted with either a gradient of 10% MeCN (0.1% TFA)/90% water (0.1% TFA) to 90% MeCN (0.1% TFA)/10% water (0.1% TFA) or a gradient of 10% MeCN/90% 10 mM potassium phosphate buffer pH 7.4 to 90% MeCN/10% 10 mM potassium phosphate buffer pH 7.4. The retention times obtained for these compounds are depicted in Table 3.

[1] = RP-HPLC C18, MeCN/10 mM potassium phosphate buffer pH 7.4 gradient
[2] = RP-HPLC C18, MeCN/water gradient with 0.1% TFA

| SMILES | retention time [1] | retention time [2] |
| --- | --- | --- |
| COc1cc2cc(c1Cl)N(C)C(=O)C[C@H](OC(=O)[C@H](C)N(C)C(=O)CCCCCNC(=O)CCOCCOCCOCCOCCNC(=O)OCC1C3CCC#CCCC31)[C@]1(C)O[C@H]1[C@H](C)[C@@H]1C[C@@](O)(NC(=O)O1)[C@H](OC)/C=C/C=C(\C)C2 (some centres unmarked) [Compound 30] | 10.6 min | 10.5 min |
| COc1cc2cc(c1Cl)N(C)C(=O)C[C@H](OC(=O)[C@H](C)N(C)C(=O)CCCCCNC(=O)OCc1ccc(NC(=O)[C@H](CCCNC(N)=O)NC(=O)[C@@H](NC(=O)OCCOCCNS(=O)(=O)NC(=O)OCC3C4CCC#CCCC43)C(C)C)cc1)[C@]1(C)O[C@H]1[C@H](C)[C@@H]1C[C@@](O)(NC(=O)O1)[C@H](OC)/C=C/C=C(\C)C2 (some centres unmarked) [Compound 36] | 9.3 min | 10.4 min |
| COc1cc2cc(c1Cl)N(C)C(=O)C[C@H](OC(=O)[C@H](C)N(C)C(=O)CCCCCNC(=O)OCc1ccc(NC(=O)[C@H](CCCNC(N)=O)NC(=O)[C@@H](NC(=O)OCCN(CCOC(=O)N[C@H](C(=O)N[C@@H](CCCNC(N)=O)C(=O)Nc3ccc(COC(=O)NCCCCCC(=O)N(C)[C@@H](C)C(=O)O[C@H]4CC(=O)N(C)c5cc(cc(OC)c5Cl)C/C(C)=C/C=C/[C@@H](OC)[C@@]5(O)C[C@H](OC(=O)N5)[C@@H](C)[C@@H]5O[C@@]45C)cc3)C(C)C)S(=O)(=O)NC(=O)OCCOCCNS(=O)(=O)NC(=O)OCC3C4CCC#CCCC43)C(C)C)cc1)[C@]1(C)O[C@H]1[C@H](C)[C@@H]1C[C@@](O)(NC(=O)O1)[C@H](OC)/C=C/C=C(\C)C2 (some centres unmarked) [Compound 38] | 9.5 min | 11.1 min |
| CN(C(=O)OCCCCCNC(=O)OCC1C2CCC#CCCC21)S(=O)(=O)NCc1ccccc1 (centres unmarked) [Compound 22] | 12.6 min | 12.7 min |
| COc1cc2cc(c1Cl)N(C)C(=O)C[C@H](OC(=O)[C@H](C)N(C)C(=O)CCCCCNC(=O)CCOCCOCCOCCOCCOCCOCCOCCOCCOCCOCCOCCOCCNC(=O)OCC1C3CCC#CCCC31)[C@]1(C)O[C@H]1[C@H](C)[C@@H]1C[C@@](O)(NC(=O)O1)[C@H](OC)/C=C/C=C(\C)C2 (some centres unmarked) [Compound 31] | 10.1 min | 10.1 min |
| O=C(CCCCCCNC(=O)OCC1C2CCC#CCCC21)NCc1ccccc1 (centres unmarked) [Compound 19, BCN-Heptanoic Acid Benzylamide] | 11.4 min | 11.4 min |
| COc1cc2cc(c1Cl)N(C)C(=O)C[C@H](OC(=O)[C@H](C)N(C)C(=O)CCCCCNC(=O)CCOCCOCCOCCOCCOCCOCCOCCOCCOCCOCCOCCOCCOCCOCCOCCOCCOCCOCCOCCOCCOCCOCCOCCOCCNC(=O)OCC1C3CCC#CCCC31)[C@]1(C)O[C@H]1[C@H](C)[C@@H]1C[C@@](O)(NC(=O)O1)[C@H](OC)/C=C/C=C(\C)C2 (some centres unmarked) [Compound 32] | 9.7 min | 9.7 min |
| O=C(NCCCCCOC(=O)NS(=O)(=O)NCc1ccccc1)OCC1C2CCC#CCCC21 (centres unmarked) [Compound 21] | 9.2 min | 11.6 min |
| O=C(CCCCCCNC(=O)OCC1C2CCC#CCCC21)NS(=O)(=O)NCc1ccccc1 (centres unmarked) [Compound 20] | 9.6 min | 11.6 min |
| COc1cc2cc(c1Cl)N(C)C(=O)C[C@H](OC(=O)[C@H](C)N(C)C(=O)CCCCCNC(=O)OCc1ccc(NC(=O)[C@H](CCCNC(N)=O)NC(=O)[C@@H](NC(=O)OCCN(CCOC(=O)N[C@H](C(=O)N[C@@H](CCCNC(N)=O)C(=O)Nc3ccc(COC(=O)NCCCCCC(=O)N(C)[C@@H](C)C(=O)O[C@H]4CC(=O)N(C)c5cc(cc(OC)c5Cl)C/C(C)=C/C=C/[C@@H](OC)[C@@]5(O)C[C@H](OC(=O)N5)[C@@H](C)[C@@H]5O[C@@]45C)cc3)C(C)C)S(=O)(=O)NC(=O)OCC3C4CCC#CCCC43)C(C)C)cc1)[C@]1(C)O[C@H]1[C@H](C)[C@@H]1C[C@@](O)(NC(=O)O1)[C@H](OC)/C=C/C=C(\C)C2 (some centres unmarked) [Compound 37] | 10.5 min | 11.2 min |
